One test has as its system MS751 cells. In words: MTT cell proliferation assay, MS751. The following applies: Homo sapiens, MS751, MS751 cells, approximately 64-72 hours incubation; read-out: MTT Assay IC50, MS751. It is filed as cell-based, human. The method, boiled down:
(§1)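 Cells plated at 5,000-10,000/well and attached overnight, then treated with eight compound concentrations from 1 nM to 30 μM. MTT added ~4 h, formazan solubilised and read at 490 nm. Percent inhibition versus negative control = (1-(ODo/OD))×100, mostly in duplicate, mean ± SE.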

The next test relates to Z138 cells. Briefly: MTT cell proliferation assay, Z138. The following applies: Homo sapiens, Z-138, Z138 cells, approximately 64-72 hours incubation; read-out: MTT Assay IC50, Z138. The format is cell-based. The method, boiled down: as §1
The test system of the next test is 3T3 cells. In words: MTT cell proliferation assay, 3T3. The format is cell-based, mouse. The following applies: Mus musculus, NIH3T3, 3T3 cells, approximately 64-72 hours incubation; read-out: MTT Assay IC50, 3T3. The method, boiled down:
as §1

The subject of another test is MM1S cell line. Briefly: MTT cell proliferation assay, MM1S. Conditions: Homo sapiens, MM1.S, incubation approximately 64-72 hours. It is filed as cell-based. How it is done: (§2) The MTT cell proliferation assay was used to study the cytotoxic properties of the compounds. The assay was performed according to the method described by Roche Molecular Biochemicals, with minor modifications. The assay is based on the cleavage of the tetrazolium salt, MTT, in the presence of an electron-coupling reagent. The water-insoluble formazan salt produced must be solubilized in an additional step. Cells grown in a 96-well tissue culture plate were incubated with the MTT solution for approximately 4 hours. After this incubation period, a water-insoluble formazan dye formed. After solubilization, the formazan dye was quantitated using a scanning multi-well spectrophotometer (ELISA reader). […] The cells were seeded at 5,000-10,000 cells in each well of 96-well plate in 100 μL of fresh culture medium and were allowed to attach overnight. The stock solutions of the compounds were diluted in 100 μL cell culture medium to obtain eight concentrations of each test compound, ranging from 1 nM to 30 μM. […] All optical densities were measured at 490 nm using a Vmax Kinetic Microplate Reader (Molecular Devices). In most cases, the assay was performed in duplicate and the results were presented as a mean percent inhibition to the negative control±SE. The following formula was used to calculate the percent of inhibition: Inhibition (%)=(1-(ODo/OD)) ×100.
The M24 cell line is derived from human melanoma cells. The U2OS cell line is a human osteosarcoma cell line expressing wild type p53 and Rb, but lacking p16. The MM1S cell line is a multiple myeloma cell line; the parent cell line, MM.1, was established from peripheral blood of a multiple myeloma patient who had become resistant to steroid-based therapy. The RPMI8226 cell line is derived from human B lymphocyte cells. NHDF cells are normal human dermal fibroblast cells. The MRC-5 cell line is derived from normal lung tissue of a fetus. The LN18 cell line is a human malignant glioma cell line. The DU-145 cell line is a human prostate cancer cell line. A549 cells are human adenocarcinomic human alveolar basal epithelial cells. […]

Another test deals with LN18 cell line. Briefly: MTT cell proliferation assay, LN18. The following applies: Homo sapiens, LN-18, incubation approximately 64-72 hours. The format is cell-based. The method, then: as §2, with “×100. […]” for “×100.”
The next test has as its system A549 cells. In words: MTT cell proliferation assay, A549. The format is cell-based. The following applies: Homo sapiens, incubation approximately 64-72 hours. How it is done:
as §2, with “×100. […]” for “×100.”

A further test relates to MOLT4 cell line. Briefly: MTT cell proliferation assay, MOLT4. It is filed as cell-based. Conditions: Homo sapiens, MOLT-4, incubation approximately 64-72 hours. How it is done:
as §2, with “×100. […]” for “×100.”

A further test has as its system THP1 cell line. In words: MTT cell proliferation assay, THP1. It is filed as cell-based. Conditions: Homo sapiens, THP-1, incubation approximately 64-72 hours. The method, then: as §2, with “×100. […]” for “×100.”
Another test has as its system OCIAML5 cell line. Briefly: MTT cell proliferation assay, OCIAML5. It is filed as cell-based. The following applies: Homo sapiens, OCI-AML-5, incubation approximately 64-72 hours. The method, then:
as §2, with “×100. […]” for “×100.”

The next test concerns MDA-MB-231 cell line. Briefly: MTT cell proliferation assay, MDA-MB-231. The format is cell-based. Conditions: Homo sapiens, incubation approximately 64-72 hours. How it is done: as §2, with “×100. […]” for “×100.”
The subject of another test is HL-60 cells. In words: MTT cell proliferation assay, HL-60. It is filed as cell-based. The following applies: Homo sapiens, incubation approximately 64-72 hours. The method, then: as §2, with “×100. […]” for “×100.”
A further test concerns Hep G2 cells. In words: MTT cell proliferation assay, Hep G2. The format is cell-based. Conditions: Homo sapiens, HepG2, incubation approximately 64-72 hours. How it is done:
as §2
The M24 cell line is derived from human melanoma cells. The U2OS cell line is a human osteosarcoma cell line expressing wild type p53 and Rb, but lacking p16. The MM1S cell line is a multiple myeloma cell line; the parent cell line, MM.1, was established from peripheral blood of a multiple myeloma patient who had become resistant to steroid-based therapy. The RPMI8226 cell line is derived from human B lymphocyte cells. NHDF cells are normal human dermal fibroblast cells. The MRC-5 cell line is derived from normal lung tissue of a fetus. The LN18 cell line is a human malignant glioma cell line. The DU-145 cell line is a human prostate cancer cell line. A549 cells are human adenocarcinomic human alveolar basal epithelial cells. The MOLT4 cell line is a human acute lymphoblastic leukemia cell line. The THP1 cell line is a human leukemic monocytic cell line derived from peripheral blood. The OCIAML5 cell line is a human acute myeloid leukemia cell line. The MDA-MB-231 cell line is a human breast adenocarcinoma cell line. The MDA-MB-468 cell line is a human breast carcinoma cell line. HL-60 cells are human promyelocytic leukemia cells. Hep G2 cells are human hepatocellular carcinoma cells. HEP 3B cells are human hepatocellular carcinoma cells. The DLD-1 cell line is a colorectal adenocarcinoma cell line. The HCT-15 cell line is a human colon carcinoma cell line. The Colo-205 cell line is derived from a human adenocarcinoma of the colon. […]

The subject of the next test is HCT-15 cell line. Briefly: MTT cell proliferation assay, HCT-15. It is filed as cell-based. Conditions: Homo sapiens, incubation approximately 64-72 hours. How it is done: as §2, with “×100. […]” for “×100.”
The test system of another test is Daudi cell line. In words: MTT cell proliferation assay, Daudi. The format is cell-based. Conditions: Homo sapiens, incubation approximately 64-72 hours. How it is done:
as §2, with “×100. […]” for “×100.”

In the next test the test system is L3.6pl cell line. Briefly: MTT cell proliferation assay, L3.6pl. The format is cell-based. Conditions: Homo sapiens, incubation approximately 64-72 hours. The method, then: as §2, with “×100. […]” for “×100.”

Where only a bound is given, the exact number is not on record here.

As for `Nc1ccc(/C=C/C(=O)NCC2Cc3cc(-c4ccc(C(=O)N5CCOCC5)cc4)cc(Cl)c3O2)cn1` (stereo not drawn) [Compound 302, (E)-3-(6-Aminopyridin-3-yl)-N-((7-chloro-5-(4-(morpholine-4-carbonyl)phenyl)-2,3-dihydrobenzofuran-2-yl)methyl)acrylamide], the IC50 in the test with MS751 cells is less than 0.1 µM; in the test with Z138 cells, less than 0.1 µM; in the test on 3T3 cells, 0.1 to 5 µM; in the test on MM1S cell line, less than 0.1 µM; with LN18 cell line, 0.1 to 5 µM; in the test with A549 cells, 0.1 to 5 µM. Besides, the IC50 with MOLT4 cell line was less than 0.1 µM; in the test on THP1 cell line it was 0.1 to 5 µM; in the test on OCIAML5 cell line, less than 0.1 µM; with MDA-MB-231 cell line, 0.1 to 5 µM; with HL-60 cells it was 0.1 to 5 µM; with Hep G2 cells, less than 0.1 µM. In addition, the values for the IC50 in the test with HCT-15 cell line, in the test with Daudi cell line and in the test with L3.6pl cell line were less than 0.1 µM, less than 0.1 µM and 0.1 to 5 µM, respectively.
